The values below come from patent US20120108501A1, “Protease Inhibitors” (priority 2009, published 2012).

In one data set the test system is HIV-1RF. Description: Cytoprotection in CEM-SS cells infected with HIV-1RF (XTT). It counts as cell-based. To be noted: CEM-SS cells infected with RF strain of HIV-1, six days. The procedure:
(§1) To evaluate whether the protease inhibitors described herein retain the ability to protect against HIV-1 infection, CEM-SS cells infected with the RF strain of HIV-1 were treated with test compounds for six days, and then cell viability was monitored using the tetrazolium dye XTT. Infection studies were performed and EC50 values were calculated as the protease inhibitor concentration leading to 50% reduction in cell death compared to virus-infected cells without protease inhibitor. TC50 values were calculated as the protease inhibitor concentration leading to 50% cell death in the absence of viral infection. A value for Therapeutic Index (TI) was calculated as TC50/EC50.
A general note: Tetrazolium dyes change colour on reduction, which living cells bring about.

The subject of a further data set is CEM-SS cells. It counts as cell-based. The procedure:
as §1

For data set [1], the system named is HT/92/599 clinical subtype B HIV-1. As to the kind of experiment: HIV-1 reverse transcriptase activity following infection in fresh human PBMCs. To be noted: seven days; for EC50: read-out: PBMC/HIV-1HT/92/599 EC50; for EC90: read-out: PBMC/HIV-1HT/92/599 EC90. Format: cell-based. As to the method: Fresh human peripheral blood mononuclear cells (PBMCs) obtained from a commercial source were purified following centrifugation using a Ficoll-Hypaque density gradient. Viable cells were induced to proliferate in the presence of PHA-P and recombinant human IL-2 for 72 hours. PBMCs pooled from three donors were cultured with test compounds in the presence of the HT/92/599 clinical subtype B HIV-1 for seven days, followed by measurement of reverse transcriptase activity in cell supernatants using a radioactive incorporation polymerization assay. […] Incorporation of TTP into DNA was monitored by spotting the reaction mixture onto a DEAE filter mat, followed by washes with 5% phosphate buffer, distilled water, and 70% ethanol, and subsequent drying of the mat. Radioactivity was measured using a Wallac 1450 Microbeta Trilux liquid scintillation counter using Opti-Fluor O. Test compound-associated toxicity was measured in PBMCs cultured for seven days in the absence of virus using XTT reagent. EC50 and EC90 values were calculated as the protease inhibitor concentration leading to 50% and 90% reduction in […], respectively, compared to virus-infected cells without protease inhibitor. TC50 values were calculated as the protease inhibitor concentration leading to 50% cell death in the absence of viral infection. A value for Therapeutic Index (TI) was calculated as TC50/EC50.

Data set [2] has as its system human peripheral blood mononuclear cells (PBMCs). Format: cell-based. As to the method:
Fresh human peripheral blood mononuclear cells (PBMCs) obtained from a commercial source were purified following centrifugation using a Ficoll-Hypaque density gradient. Viable cells were induced to proliferate in the presence of PHA-P and recombinant human IL-2 for 72 hours. PBMCs pooled from three donors were cultured with test compounds in the presence of the HT/92/599 clinical subtype B HIV-1 for seven days, followed by measurement of reverse transcriptase activity in cell supernatants using a radioactive incorporation polymerization assay. Cell supernatant containing HIV-1 viral was incubated for 90 minutes at 37° C. with a reaction mixture containing EGTA, Triton X-100, Tris (pH 7.4), DTT, MgCl2, poly rA, oligo dT, and tritiated thymidine triphosphate (TTP). Incorporation of TTP into DNA was monitored by spotting the reaction mixture onto a DEAE filter mat, followed by washes with 5% phosphate buffer, distilled water, and 70% ethanol, and subsequent drying of the mat. Radioactivity was measured using a Wallac 1450 Microbeta Trilux liquid scintillation counter using Opti-Fluor O. Test compound-associated toxicity was measured in PBMCs cultured for seven days in the absence of virus using XTT reagent. EC50 and EC90 values were calculated as the protease inhibitor concentration leading to 50% and 90% reduction in […], respectively, compared to virus-infected cells without protease inhibitor. TC50 values were calculated as the protease inhibitor concentration leading to 50% cell death in the absence of viral infection. A value for Therapeutic Index (TI) was calculated as TC50/EC50.

A short description of data set [3]: Pharmacokinetics of PEGylated protease inhibitor prodrugs in rats. It counts as in vivo, male Sprague-Dawley rats. The arrangement: AUCall / AUC: concentration or dose not given beside the values. To be noted: prodrug in plasma. A digest of the protocol: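 Male Sprague-Dawley rats dosed; serial blood drawn via jugular vein catheters into K2EDTA and processed to plasma. Test article or released PEGylated molecule quantified by LC-MS/MS; Cmax, AUCall, T½ and MRTlast estimated noncompartmentally.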

Data set [4] is described as follows: Pharmacokinetics of released PEGylated protease inhibitor following P.O. administration of prodrugs in rats. Format: in vivo, male Sprague-Dawley rats. The arrangement: AUCall Mean: concentration or dose not given beside the values; C24 Mean: unit not given here. To be noted: rats (n = 4-5). A digest of the protocol: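 Prodrugs given orally to male Sprague-Dawley rats, with serial blood via jugular catheter into K2EDTA. Plasma levels of test article or released PEGylated inhibitor measured by LC-MS/MS. PK parameters from noncompartmental analysis.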

Setting [5] is: mPEG3-atazanavir in plasma after PO administration of mPEG3-ATV or of the listed prodrug.
[6] abbreviates: mPEG6-atazanavir in plasma after PO administration of mPEG6-ATV or of the listed prodrug.
The mark [7] stands for this setting: mPEG5-atazanavir in plasma after PO administration of mPEG5-ATV or of the listed prodrug.

Where two headings read alike, the source gives them in different places.

Usually CC50 stands for the concentration at which the toxic effect on the cells reaches its halfway point. `CCCCCCCCCCCCCCCCOCC(COP(=O)(O)OC(CN(Cc1ccc(-c2ccccn2)cc1)NC(=O)C(NC(=O)OC)C(C)(C)C)C(Cc1ccccc1)NC(=O)C(NC(=O)OCCOCCOCCOC)C(C)(C)C)OC` (stereo not shown) [mPEG3-Atazanavir-monophospholipid]: the EC50 was found to be 0.35 µM in the data set with HIV-1RF and 0.97 µM in data set [1]. Further, the cytotoxic concentration (CC50) in the data set on CEM-SS cells came to 14.2 µM; in data set [2], 43.7 µM. Moreover, the EC90 in data set [1] is 2.52 µM.
On to `CCCCCCCCCCCCCCCCOCC(COP(=O)(O)OC(CN(Cc1ccc(-c2ccccn2)cc1)NC(=O)C(NC(=O)OC)C(C)(C)C)C(Cc1ccccc1)NC(=O)C(NC(=O)OCCOCCOCCOCCOCCOC)C(C)(C)C)OC` (stereo not shown) [mPEG5-Atazanavir-monophospholipid], for which, in the data set with HIV-1RF, the “CEM-SS/HIV-1RF EC50” value is “no EC50 value could be determined” and the EC50 is greater than 200 µM. Further, the CC50 in the data set on CEM-SS cells came out at 12 µM. Further, in data set [1], the EC50 turned out to be 12.3 µM and the EC90 worked out at 26.8 µM. Also, the CC50 in data set [2] stood at 17.1 µM.
What is called MRT last is the average time that molecules of a dose stay in the body. The term AUC denotes concentration integrated over time. Usually Cmax stands for the maximum level reached in the sampled fluid or tissue. Consider `COCCOCCOCCOC(=O)N[C@H](C(=O)N[C@@H](Cc1ccccc1)[C@H](CN(Cc1ccc(-c2ccccn2)cc1)NC(=O)[C@@H](NC(=O)OC)C(C)(C)C)OC(=O)[C@H](Cc1ccccc1)NC(=O)[C@@H](N)CC(C)C)C(C)(C)C.Cl` [Leu-Phe-mPEG3-Atazanavir, Leu-Phe-mPEG3-Atazanavir Hydrochloride], for which the MRT last in data set [3] (male, Sprague-Dawley, rat, in vivo) was 3.42 ± 0.916 h. Further, the concentration at 24 hr in data set [3] (male, Sprague-Dawley, rat, in vivo, 24 hr, read-out: Cmin(24 hr)) amounted to 0.154 ± 0.307 ng/mL. The AUC in data set [3] (male, Sprague-Dawley, rat, in vivo, mean ± SD) was 157 ± 30.3 ng·h/mL. In addition, in data set [3] (male, Sprague-Dawley, rat, in vivo, mean ± SD, read-out: Cmax), the Cmax is 41.9 ± 7.92 ng/mL. Besides, the half-life in data set [3] (male, Sprague-Dawley, rat, in vivo, read-out: t½(z) (converted)) is 3.2 ± 0.981 h. The “C24 Mean” value in data set [4] (concentration at 24 hours, mPEG3-atazanavir in plasma after PO administration of mPEG3-ATV or of the listed prodrug) worked out at 2.35. Further, in data set [4] (setting [5]), the “AUCall Mean” value stood at 448 ng·h/mL, the “Cmax Mean” value came to 84.9 ng/mL, the “MRT last Mean” value was found to be 7.56 h and the “Tmax* Median” value was found to be 2.00 h.
Molecule `CCCCCCCCCCCCCCCCOCC(COP(=O)(O)OC(CN(Cc1ccc(-c2ccccn2)cc1)NC(=O)C(NC(=O)OC)C(C)(C)C)C(Cc1ccccc1)NC(=O)C(NC(=O)OCCOCCOCCOCCOCCOCCOC)C(C)(C)C)OC` (stereo not shown) [mPEG6-Atazanavir-monophospholipid, mPEG6-atazanavir monophospholipid] showed an EC50 with HIV-1RF of 14.2 µM. In the data set with CEM-SS cells, this molecule returned a 50% cytotoxic concentration (CC50) of 12.6 µM. Moreover, in data set [1], the EC50 came out at 12.4 µM and the EC90 was 26.3 µM. In addition, in data set [2], the CC50 is 37.6 µM. Also, in data set [4] (setting [6]), the “AUCall Mean” value was 0.108 ng·h/mL, the “Cmax Mean” value is reported as 0.432 ng/mL, the “MRT last Mean” value was 0.250 h and the “Tmax Median” value worked out at 0.250 h.
Take `COCCOCCOCCOC(=O)NC(C(=O)NC(Cc1ccccc1)C(CN(Cc1ccc(-c2ccccn2)cc1)NC(=O)C(NC(=O)OC)C(C)(C)C)OC(=O)CCCC(=O)O)C(C)(C)C` (stereo not shown) [mPEG3-Atazanavir-glutaric acid]: in data set [3], the MRTlast is 8.23 ± 3.48 h and the “t½(z)” value worked out at 7.69 ± 2.54 h. Also, the “Cmin(24 hr)” value in data set [3] (24 hr) was determined as 2.68 ± 1.51 ng/mL. Also, in data set [3] (mean ± SD), the AUCall was determined as 351 ± 50.2 ng·h/mL and the Cmax is 61.3 ± 52.7 ng/mL. For the same molecule, in data set [4] (setting [5]), the “AUCall Mean” value was determined as 53.8 ng·h/mL, the “MRT last Mean” value stood at 19.5 h and the “Tmax* Median” value worked out at 24.0 h.
Turning to “Acetate Ester-mPEG5-Atazanavir [Acetate-OCHMe—OCO2-mPEG5-Atazanavir]”, in data set [3], the MRTlast came out at 6.21 ± 3.38 h and the “t½(z)” value is 4.82 ± 3.10 h. Moreover, in data set [3] (mean ± SD), the AUCall came out at 616 ± 156 ng·h/mL and the Cmax worked out at 115 ± 29.0 ng/mL. Besides, in data set [4] (setting [7]), the “AUCall Mean” value was 616 ng·h/mL, the “Cmax Mean” value stood at 115 ng/mL, the “MRT last Mean” value was 6.21 h and the “Tmax Median” value was found to be 0.750 h.
On to `CCOC(C)OC(CN(Cc1ccc(-c2ccccn2)cc1)NC(=O)C(NC(=O)OC)C(C)(C)C)C(Cc1ccccc1)NC(=O)C(NC(=O)OCCOCCOCCOCCOCCOC)C(C)(C)C` (mixture of isomers) [1-ethoxyethoxy-mPEG5-Atazanivir, ethoxy ethoxy mPEG5-atazanavir], for which, in data set [3], the MRTlast was found to be 1.80 ± 0.060 h and the “t½(z)” value was determined as 2.14 ± 1.85 h. Besides, the “Cmin(24 hr)” value in data set [3] (24 hr) is recorded as 0.208 ± 0.416 ng/mL. Further, in data set [3] (mean ± SD), the AUCall came out at 4960 ± 1730 ng·h/mL and the Cmax is on record as 1420 ± 595 ng/mL. Also, in data set [4] (setting [7]), the “AUCall Mean” value came out at 329 ng·h/mL, the “Cmax Mean” value is recorded as 109 ng/mL, the “MRT last Mean” value was found to be 1.95 h and the “Tmax Median” value worked out at 1.50 h.
For `COCCOCCOCCOC(=O)NC(C(=O)NC(Cc1ccccc1)C(CN(Cc1ccc(-c2ccccn2)cc1)NC(=O)C(NC(=O)OC)C(C)(C)C)OC(=O)CCCC(=O)OC1C(O)C(O)OC1C(O)CO)C(C)(C)C` (stereo not shown), in data set [3], the MRTlast came to 1.86 ± 1.49 h and the “t½(z)” value is 3.24 ± 3.26 h. Moreover, the “Cmin(24 hr)” value in data set [3] (24 hr) was 0.177 ± 0.353 ng/mL. Further, in data set [3] (mean ± SD), the AUCall came to 221 ± 57.1 ng·h/mL and the Cmax was 167 ± 89.6 ng/mL. In data set [4] (setting [5]), the “AUCall Mean” value came to 84.4 ng·h/mL, the “Cmax Mean” value worked out at 3.62 ng/mL, the “MRT last Mean” value was determined as 22.5 h and the “Tmax* Median” value is 0.250 h.
For `CCOC(CC)OC(CN(Cc1ccc(-c2ccccn2)cc1)NC(=O)C(NC(=O)OC)C(C)(C)C)C(Cc1ccccc1)NC(=O)C(NC(=O)OCCOCCOCCOC)C(C)(C)C` (mixture of isomers) [1-ethoxypropoxy-mPEG3-Atazanivir, atazanavir-1-ethoxypropoxy-mPEG3], in data set [3], the MRTlast worked out at 2.29 ± 0.280 h and the “t½(z)” value is 1.39 ± 0.210 h. The “Cmin(24 hr)” value in data set [3] (24 hr) is listed as “BLQ”. In data set [3] (mean ± SD), the AUCall turned out to be 8480 ± 1700 ng·h/mL and the Cmax turned out to be 2060 ± 260 ng/mL. Besides, in data set [4] (setting [5]), the “AUCall Mean” value is 849 ng·h/mL, the “Cmax Mean” value was determined as 153 ng/mL, the “MRT last Mean” value came to 3.83 h and the “Tmax* Median” value is 1.00 h.
